In the supplement of paper PMC10307832:

Key:
Test in all cases: relative viability (nuclei count vs DMSO), 5 days (fraction); higher = more cells survive
LCLC-97TM1 = test system: LCLC-97TM1
How it was run: (§1)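 Lung cancer cell lines in 1536-well plates got either a single drug or a fixed anchor-drug dose together with five library-drug doses (not always all listed) in √10 steps, by pin tool, on the day after seeding. Nuclei were counted after 5 days, and relative viability is the treated-to-vehicle ratio of nuclei counts. Values are medians of duplicate plates.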

NCI-H838 = test system: NCI-H838
How it was run: as §1

UMC-11 = test system: UMC-11
How it was run: as §1

NCI-H358 = test system: NCI-H358
How it was run: as §1

H3255 = test system: H3255
How it was run: as §1

PC-3 [JPC-3] = test system: PC-3 [JPC-3]
How it was run: as §1

NCI-H1666 = test system: NCI-H1666
How it was run: as §1

NCI-H1792 = test system: NCI-H1792
How it was run: as §1

NCI-H2228 = test system: NCI-H2228
How it was run: as §1

LK-2 = test system: LK-2
How it was run: as §1

NCI-H1651 = test system: NCI-H1651
How it was run: as §1

NCI-H661 = test system: NCI-H661
How it was run: as §1

O=c1[nH]c2ccccc2n1C1CCN(CCCC(c2ccc(F)cc2)c2ccc(F)cc2)CC1 [Pimozide] + CS(=O)(=O)N1CCN(Cc2cc3nc(-c4cccc5[nH]ncc45)nc(N4CCOCC4)c3s2)CC1 [Pictilisib] (partner 1 µM)
relative viability (LCLC-97TM1; first compound 0.8 µM): 0.225
relative viability (LCLC-97TM1; first compound 2.53 µM): 0.18
relative viability (LCLC-97TM1; first compound 8 µM): 0.119
relative viability (NCI-H838; first compound 0.08 µM): 0.484
relative viability (NCI-H838; first compound 0.253 µM): 0.454
relative viability (NCI-H838; first compound 0.8 µM): 0.444
relative viability (NCI-H838; first compound 2.53 µM): 0.447
relative viability (NCI-H838; first compound 8 µM): 0.427
relative viability (UMC-11; first compound 0.08 µM): 0.79
relative viability (UMC-11; first compound 0.253 µM): 0.804
relative viability (UMC-11; first compound 0.8 µM): 0.746
relative viability (UMC-11; first compound 2.53 µM): 0.699
relative viability (UMC-11; first compound 8 µM): 0.906
relative viability (NCI-H358; first compound 0.08 µM): 0.292
relative viability (NCI-H358; first compound 0.253 µM): 0.324
relative viability (NCI-H358; first compound 0.8 µM): 0.384
relative viability (NCI-H358; first compound 2.53 µM): 0.356
relative viability (NCI-H358; first compound 8 µM): 0.396
relative viability (H3255; first compound 0.253 µM): 0.406
relative viability (H3255; first compound 0.8 µM): 0.575
relative viability (H3255; first compound 2.53 µM): 0.456
relative viability (H3255; first compound 8 µM): 0.506
relative viability (PC-3 [JPC-3]; first compound 0.253 µM): 0.695
relative viability (PC-3 [JPC-3]; first compound 0.8 µM): 0.654
relative viability (PC-3 [JPC-3]; first compound 2.53 µM): 0.698
relative viability (PC-3 [JPC-3]; first compound 8 µM): 0.686
relative viability (NCI-H1666; first compound 0.08 µM): 0.323
relative viability (NCI-H1666; first compound 0.253 µM): 0.512
relative viability (NCI-H1666; first compound 0.8 µM): 0.439
relative viability (NCI-H1666; first compound 2.53 µM): 0.385
relative viability (NCI-H1666; first compound 8 µM): 0.465
relative viability (NCI-H1792; first compound 0.08 µM): 0.274
relative viability (NCI-H1792; first compound 0.253 µM): 0.292
relative viability (NCI-H1792; first compound 0.8 µM): 0.25
relative viability (NCI-H1792; first compound 2.53 µM): 0.26
relative viability (NCI-H1792; first compound 8 µM): 0.314
relative viability (NCI-H2228; first compound 0.08 µM): 0.378
relative viability (NCI-H2228; first compound 0.253 µM): 0.386
relative viability (NCI-H2228; first compound 0.8 µM): 0.312
relative viability (NCI-H2228; first compound 2.53 µM): 0.34
relative viability (NCI-H2228; first compound 8 µM): 0.29
relative viability (LK-2; first compound 0.08 µM): 0.556
relative viability (LK-2; first compound 0.253 µM): 0.605
relative viability (LK-2; first compound 0.8 µM): 0.454
relative viability (LK-2; first compound 2.53 µM): 0.547
relative viability (LK-2; first compound 8 µM): 0.553
relative viability (NCI-H1651; first compound 0.08 µM): 0.62
relative viability (NCI-H1651; first compound 0.253 µM): 0.506
relative viability (NCI-H1651; first compound 0.8 µM): 0.685
relative viability (NCI-H1651; first compound 2.53 µM): 0.543
relative viability (NCI-H1651; first compound 8 µM): 0.465
relative viability (NCI-H661; first compound 0.08 µM): 0.447
relative viability (NCI-H661; first compound 0.253 µM): 0.337
relative viability (NCI-H661; first compound 0.8 µM): 0.454
relative viability (NCI-H661; first compound 2.53 µM): 0.381
relative viability (NCI-H661; first compound 8 µM): 0.408
